Source: patent US20240043528A1, “NANOBODY-OGA FUSIONS AND USES THEREOF” (President and Fellows of Harvard College, priority 2020, published 2024)

How the values were obtained:
Type in all cases: cell-based, human
[1] = test system: global O-GlcNAcylation; assay: Global O-GlcNAcylation level in whole cell lysate, anti-O-GlcNAc (RL2) immunoblot; settings: HEK 293T whole cell lysate, OSMI-4b 25 μM for 30 h
Method: After 36-48 h of transfection, cells were harvested and washed with PBS once. Cells were lysed with M-PER lysis buffer containing 1× protease inhibitor cocktail and 10 μM Thiamet-G unless otherwise noted. Protein concentrations were determined by the BCA assay kit (G-Biosciences, 786) on a multi-mode microplate reader FilterMax F3 (Molecular Devices LLC, Sunnyvale, CA).
For immunoblotting analysis, proteins were transferred to a nitrocellulose membrane using iBlot (Thermo Scientific). Membranes were blocked with Tris buffered saline containing 0.1% Tween-20 and 5% BSA and incubated with the primary antibodies (1:1000 dilution) and the secondary antibodies (1:10,000 dilution) sequentially. Immunoblot images were captured by Azure Imager C600. Analysis of immunoblots was conducted with Fiji ImageJ. All IR fluorescence western blot images are converted into grayscale images by Fiji ImageJ. The unsaturated exposure of immunoblot images was used for quantification with the appropriate loading controls as standards. Statistical analysis of the data was performed with Prism 8, using data from at least three independent experiments.

[2] = test system: endogenous c-Jun; assay: O-GlcNAcylation status of endogenous c-Jun (chemoenzymatic labeling, Biotin-IP); settings: HEK 293T cells expressing c-Fos-Ubc
Method: Purification of GalT1 (Y289L) enzyme and labeling of O-GlcNAcylated proteins with GalNAz were performed according to the procedure of Hsieh-Wilson and co-workers (Thompson, J. W., Griffin, M. E. & Hsieh-Wilson, L. C. Methods for the Detection, Study, and Dynamic Profiling of O-GlcNAc Glycosylation. Methods Enzymol. 2018, 598, 101-135). Briefly, cell samples in 6-well plates or 15-cm dishes were harvested and washed by PBS once. The lysis buffer (PBS with 2% SDS) was added into cell pellets and heated for 5 min at 95° C., followed by the sonication to sheer DNA. Protein concentrations were determined by BCA assay. Cell lysates were reduced and alkylated with 25 mM DTT at 95° C. for 5 min and 50 mM iodoacetamide at room temperature for 1 h respectively. Proteins were precipitated by the methanol/chloroform solution (aqueous phase:CH3OH:CHCl3=4:4:1) and resuspended in 1% SDS, 20 mM HEPES (pH 7.9) buffer with a concentration of 3.75 mg/mL. For 150 μg proteins, H2O (49 μL), 2.5×GalT labeling buffer (80 μL, final concentrations: 50 mM NaCl, 20 mM HEPES, 2% NP-40, pH 7.9), 100 mM MnCl2 (11 μL), 500 μM UDP-GalNAz (10 μL), 2 mg/mL GalT1 (Y289L) (10 μL) were added into cell lysates orderly. The reaction was gently rotated at 4° C. for at least 20 h and the proteins were precipitated as described above. The proteins were resuspended with 1% SDS, PBS for the further click chemistry. […]

[3] = test system: AP-1 transcriptional activity; assay: AP-1 responsive luciferase reporter assay in c-Fos-Ubc co-transfected HEK 293T cells; settings: c-Fos-Ubc-Flag-EPEA co-transfected HEK 293T cells, 48 h; OSMI-4b 25 μM
Method: For luciferase assay in the OGT inhibition experiment, HEK 293T cells co-transfected with c-Fos-Ubc-Flag-EPEA plasmid and AP-1 responsive luciferase reporter were treated with either DMSO or 25 μM OSMI-4b for 48 h before luciferase activity detection. […] Luciferase reporter assays were performed using Luciferase Assay System (Promega, E1500) according to manufacturer's protocols. At least three independent biological replicates were run using this assay.

[4] = test system: c-Fos-Ubc-Flag-EPEA; assay: Deglycosylation of c-Fos-Ubc-Flag-EPEA (anti-EPEA enrichment, anti-O-GlcNAc immunoblot); settings: HEK 293T cells
Method: For immunoprecipitation of proteins with the C-terminal EPEA tag, cell lysates with equal amounts of protein were diluted with PBS and incubated with C-tag affinity matrix (Thermo Scientific) for 1 h at room temperature, with end-to-end rotation, following the manufacturer's instructions. After washing three times with PBS buffer, the enriched proteins were eluted with SDS sample buffer and subjected to SDS-PAGE.
For immunoblotting analysis, proteins were transferred to a nitrocellulose membrane using iBlot (Thermo Scientific). […] All IR fluorescence western blot images are converted into grayscale images by Fiji ImageJ. The unsaturated exposure of immunoblot images was used for quantification with the appropriate loading controls as standards. […]
The ability of nUbc-split OGA to selectively remove an O-GlcNAc modification from Ubc-tagged c-Fos was examined. c-Fos is a core component of the AP-1 transcription factor complex, which will dimerize with c-Jun and drive downstream transcription (Hess, J., Angel, P. & Schorpp-Kistner, M. AP-1 subunits: quarrel and harmony among siblings. J. Cell Sci. 2004, 117, 5965-73). […] The O-GlcNAc modification level was evaluated by immunoblotting with an anti-O-GlcNAc antibody (FIG. 4C). Ratios were quantified from the protein level and O-GlcNAc level.

## OSMI-4b
[1]
  global O-GlcNAcylation level: dramatic reduction of global O-GlcNAcylation level
[1]; listed as OSMI-4b9
  global O-GlcNAcylation level: dramatic reduction
[2]
  O-GlcNAc modification on endogenous c-Jun: reduced O-GlcNAc modification
[3]
  AP-1 transcriptional activity (luciferase): significantly upregulated
[4]
  O-GlcNAc modification level on c-Fos-Ubc: deglycosylated
